The results in this text go back to patent US6472526B1, “Imidazole derivatives having an inhibitory activity for farnesyl transferase and process for preparation thereof” (LG Chemical Ltd., priority 1997, dated 2002).

The target of assay [1] is T1, Ras farnesyl transferase (Homo sapiens, UniProt P49354+P49356).
T1 construct: made in house
The assay is described as follows: In vitro inhibitory activity for Ras farnesyl transferase, K-Ras substrate. The assay is classed as biochemical.

Assay [2] addresses T2, Ras farnesyl transferase (Rattus norvegicus, UniProt Q02293+Q04631).
T2 construct: endogenous in cells; host or cells: Rat2 fibroblasts transformed with H-Ras or with an H-Ras/K-Ras C-terminus fusion
The assay is described as follows: In vivo (cellular) inhibitory activity for Ras farnesyl transferase, Rat2 cell line transformed with fused protein of H-Ras substituted with polybasic lysine domain at C-terminus of K-Ras. The assay is classed as cell-based. The method, boiled down: (§1)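 Farnesylated versus unfarnesylated Ras bands were measured by autoradiography after Y13-259 immunoprecipitation and SDS-PAGE, giving CIC50 as 50% inhibition of farnesylation. Rat2 cells expressing H-Ras or an H-Ras fusion with K-Ras polybasic C-terminus got compound (1% DMSO), then [35S]methionine from 4 h onward for 20 h.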

For assay [3], the target named is T2, Ras farnesyl transferase. Kind of assay: In vivo (cellular) inhibitory activity for Ras farnesyl transferase, Rat2 cell line which expresses C-Harvey-Ras protein. The class given is cell-based. The method, boiled down: as §1
For assay [4], the target named is T1, Ras farnesyl transferase. Kind of assay: In vitro inhibitory activity for Ras farnesyl transferase, H-Ras substrate. The assay is classed as biochemical.
Where [5] appears, read: in vitro farnesyl transferase assay, K-Ras, read-out: K-Ras IC50.
The mark [6] stands for this setting: Rat2 cell line transformed with H-Ras fused with polybasic lysine domain of K-Ras C-terminus, concentration inhibiting 50% of farnesyl bonding, read-out: K-Ras CIC50.
[7] abbreviates: Rat2 cell line expressing C-Harvey-Ras, concentration inhibiting 50% of farnesyl bonding of Ras protein, read-out: H-Ras CIC50.
Setting [8] is: recombinant farnesyl transferase 4.5 nM, Ras substrate protein 1.5 μM, tritium-farnesylpyrophosphate 0.15 μM, 30 minutes at 37° C., read-out: H-Ras IC50.

The structures appear in SMILES notation.

Consider `Cn1cnc(Cn2cc(C(=O)c3ccc(Oc4ccccc4)cc3)c(-c3cccc4ccccc34)c2)c1` [Compound 79, 1-(1-Methyl-1H-imidazol-4-yl)methyl-4-(naphthalen-1-yl)-3-(4-phenoxybenzoyl)-1H-pyrrole], for which the IC50 in assay [1] (setting [5]) was 0.1 µM; in assay [2] (setting [6]), > 50 µM; in assay [3] (setting [7]), 0.1 µM; in assay [4] (setting [8]), 0.005 µM.

Regarding `COC(=O)[C@H](CCSC)NC(=O)c1cn(Cc2c[nH]cn2)cc1-c1cccc2ccccc12` [Compound 80, (S)-1-(1H-Imidazol-4-yl)methyl-3-[N-(1-methoxycarbonyl-3-methylthio)propyl]carbamoyl-4-(naphthalen-1-yl)-1H-pyrrole], the IC50 is 0.1 to 10 µM in assay [1] (setting [5]), 10 to 100 µM in assay [2] (setting [6]), 1 to 50 µM in assay [3] (setting [7]) and 8.21 µM in assay [4] (setting [8]).

In the case of `CSCC[C@H](NC(=O)c1cn(Cc2c[nH]cn2)cc1-c1cccc2ccccc12)C(=O)O` [Compound 81, (S)-3-[N-(1-Hydroxycarbonyl-3-methylthio)propyl]carbamoyl-1-(1H-imidazol-4-yl)methyl-4-(naphthalen-1-yl)-1H-pyrrole], the IC50 was 0.1 to 10 µM in assay [1] (setting [5]), 10 to 100 µM in assay [2] (setting [6]), 1 to 50 µM in assay [3] (setting [7]) and 0.68 µM in assay [4] (setting [8]).

Turning to `O=C(Nc1ccccc1)c1cn(Cc2c[nH]cn2)cc1-c1cccc2ccccc12` [Compound 82], the IC50 in assay [1] (setting [5]) is 0.1 to 10 µM; in assay [2] (setting [6]) it was 10 to 100 µM; in assay [3] (setting [7]) it was 1 to 50 µM; in assay [4] (setting [8]) it was 0.4 µM.

On to `O=C(NCc1ccccc1)c1cn(Cc2c[nH]cn2)cc1-c1cccc2ccccc12` [Compound 83], for which the IC50 is 18.5 µM in assay [1] (setting [5]), 10 to 100 µM in assay [2] (setting [6]), 1 to 50 µM in assay [3] (setting [7]) and 0.26 µM in assay [4] (setting [8]).

Regarding `O=C(c1cn(Cc2c[nH]cn2)cc1-c1cccc2ccccc12)N1CCCCC1` [Compound 84], the IC50 in assay [1] (setting [5]) was 1.83 µM; in assay [2] (setting [6]), 10 to 100 µM; in assay [3] (setting [7]) it was 1 to 50 µM; in assay [4] (setting [8]), 0.72 µM.

Regarding `O=C(c1cn(Cc2c[nH]cn2)cc1-c1cccc2ccccc12)N1CCOCC1` [Compound 85], the IC50 was 0.1 to 10 µM in assay [1] (setting [5]), > 50 µM in assay [2] (setting [6]), 4 µM in assay [3] (setting [7]) and 0.03 µM in assay [4] (setting [8]).

Regarding `O=C(c1cn(Cc2c[nH]cn2)cc1-c1cccc2ccccc12)N1CCSCC1` [Compound 86], the IC50 was 0.1 to 10 µM in assay [1] (setting [5]), > 50 µM in assay [2] (setting [6]), 2 µM in assay [3] (setting [7]) and 0.03 µM in assay [4] (setting [8]).

With `O=C(c1cn(Cc2c[nH]cn2)cc1-c1cccc2ccccc12)N1CCS(=O)(=O)CC1` [Compound 87], the IC50 in assay [1] (setting [5]) is 0.1 to 10 µM; in assay [2] (setting [6]) it was 10 to 100 µM; in assay [3] (setting [7]), 1 to 50 µM; in assay [4] (setting [8]), 0.06 µM.

Turning to `O=C(c1cn(Cc2c[nH]cn2)cc1-c1cccc2ccccc12)N1CCNCC1` [Compound 88], the IC50 in assay [1] (setting [5]) is 0.1 to 10 µM; in assay [2] (setting [6]), 10 to 100 µM; in assay [3] (setting [7]) it was 1 to 50 µM; in assay [4] (setting [8]) it was 0.6 µM.

As for `O=C(c1cn(Cc2c[nH]cn2)cc1-c1cccc2ccccc12)N1CCSC1` [Compound 90], the IC50 in assay [1] (setting [5]) was 0.1 to 10 µM; in assay [2] (setting [6]), 10 to 100 µM; in assay [3] (setting [7]) it was 1 to 50 µM; in assay [4] (setting [8]) it was 0.0425 µM.

Take `O=C(c1cn(Cc2c[nH]cn2)cc1-c1cccc2ccccc12)N1CCC(O)CC1` [Compound 91]: the IC50 in assay [1] (setting [5]) is 0.1 to 10 µM; in assay [2] (setting [6]), 10 to 100 µM; in assay [3] (setting [7]) it was 1 to 50 µM; in assay [4] (setting [8]), 2.15 µM.

Turning to `O=C1CCN(C(=O)c2cn(Cc3c[nH]cn3)cc2-c2cccc3ccccc23)CC1` [Compound 92], the IC50 was 0.1 to 10 µM in assay [1], 10 to 100 µM in assay [2], 1 to 50 µM in assay [3] and 0.07 µM in assay [4].

`O=C(NCCO)c1cn(Cc2c[nH]cn2)cc1-c1cccc2ccccc12` [Compound 93]: the IC50 in assay [1] (setting [5]) was 0.1 to 10 µM; in assay [2] (setting [6]), 10 to 100 µM; in assay [3] (setting [7]), 1 to 50 µM; in assay [4] (setting [8]), 0.32 µM.

Regarding `CN(CCO)C(=O)c1cn(Cc2c[nH]cn2)cc1-c1cccc2ccccc12` [Compound 94], the IC50 in assay [1] (setting [5]) is 0.1 to 10 µM; in assay [2] (setting [6]), 10 to 100 µM; in assay [3] (setting [7]), 1 to 50 µM; in assay [4] (setting [8]) it was 0.2 µM.

On to `COCCN(C)C(=O)c1cn(Cc2c[nH]cn2)cc1-c1cccc2ccccc12` [Compound 95], for which the IC50 in assay [1] (setting [5]) is 0.1 to 1 µM; in assay [2] (setting [6]) it was 10 to 50 µM; in assay [3] (setting [7]) it was 0.01 to 0.1 µM; in assay [4] (setting [8]) it was 0.0007 µM.

Consider `O=C(c1cn(Cc2c[nH]cn2)cc1-c1ccnc2ccccc12)N1CCOCC1` [Compound 96], for which the IC50 in assay [1] (setting [5]) is 0.1 to 10 µM; in assay [2] (setting [6]), 10 to 100 µM; in assay [3] (setting [7]), 1 to 50 µM; in assay [4] (setting [8]), 0.23 µM.
